Results on one molecule are retold here after patent US20140329682A1, “METHOD OF CONTROLLING WEED IN A SUGAR CANE FIELD” (SUMITOMO CHEMICAL COMPANY, LIMITED, priority 2011, published 2014).

Common to all, as to type: in vivo
For test [1], the system named is Amaranthus retroflexus. The test can be described thus: Herbicidal activity, spray above weed one week before planting (Example 5). The note with it: sprayed above weed three weeks after seeding, 3 cm stem cutting planted one week after treatment, four weeks after treatment.
Experimental: (§1) A soil is packed into a plastic pot, and seeds of Amaranthus retroflexus are seeded thereon. Thereafter, the pot is placed in a greenhouse, and the weed is grown.
A 30 cm to 40 cm stem cutting of sugar cane is placed on a wet soil, and germination is stimulated. The stem cutting from which a bud has been grown to about 1 cm is selected, and the length of the stem cutting is adjusted to be 3 cm so that the stem cutting has one node.
(§2) The pot for a test is placed in a greenhouse.
Test [2] concerns Amaranthus retroflexus. Briefly: Herbicidal activity, spray above weed before planting, strobilurin-treated stem cutting (Example 9). The settings on record: sprayed above weed, 3 cm stem cutting treated with kresoxim-methyl, azoxystrobin or another listed strobilurin fungicide planted one week after treatment, four weeks after treatment.
Experimental: as §1
A 30 cm to 40 cm stem cutting of sugar cane is placed on a wet soil, and germination is stimulated. The stem cutting from which a bud has grown to about 1 cm is selected, and the length of the stem cutting is adjusted to be 3 cm so that the stem cutting has one node. Kresoxim-methyl, azoxystrobin, trifloxystrobin, fluoxastrobin, picoxystrobin, pyraclostrobin, dimoxystrobin, pyribencarb, metominostrobin, orysastrobin, enestrobin, pyraoxystrobin or pyrametostrobin is adhered to the stem cutting.
as §2
The subject of test [3] is Amaranthus retroflexus. The test can be described thus: Herbicidal activity, spray above weed before planting, azole-fungicide-treated stem cutting (Example 11). The settings on record: sprayed above weed, 3 cm stem cutting treated with azaconazole, bitertanol or another listed azole-type fungicide planted one week after treatment, four weeks after treatment.
Experimental: A soil is packed into a plastic pat, and seeds of Amaranthus retroflexus are seeded thereon. Thereafter, the pot is placed in a greenhouse, and the weed is grown.
A 30 cm to 40 cm stem cutting of sugar cane is placed on a wet soil, and germination is stimulated. The stem cutting from which a bud has grown to about 1 cm is selected, and the length of the stem cutting is adjusted to be 3 cm so that the stem cutting has one node.
as §2
Test [4] relates to Amaranthus retroflexus. The test can be described thus: Herbicidal activity, soil surface spray, azole-fungicide-treated stem cutting (Example 10). The note with it: 3 cm stem cutting treated with azaconazole, bitertanol or another listed azole-type fungicide, four weeks after treatment.
Text: A 30 to 40 cm stem cutting of sugar cane is placed on a wet soil, and germination is stimulated. The stem cutting from which a bud has grown to about 1 cm is selected, and the length of the stem cutting is adjusted to be 3 cm so that the stem cutting has one node. Azaconazole, bitertanol, bromoconazole, cyproconazole, difenoconazole, diniconazole, epoxyconazole, fenbuconazole, fluquinconazole, flusilazole, flutriafol, hexaconazole, imibenconazole, ipconazole, metconazole, myclobutanil, penconazole, propiconazole, prothioconazole, simeconazole, tebuconazole, tetraconazole, triadimenol, triticonazole, fenarimol, nuarimol, pyrifenox, imazalil, oxpoconazole fumarate, pefurazoate, procloraz or triflumizole is adhered to the stem cutting. A soil is packed into a plastic pot, and seeds of Amaranthus retroflexus are seeded thereon. The stem cutting of sugar cane treated with azaconazole, bitertanol, bromoconazole, cyproconazole, difenoconazole, diniconazole, epoxyconazole, fenbuconazole, fluquinconazole, flusilazole, flutriafol, hexaconazole, imibenconazole, ipconazole, metconazole, myclobutanil, penconazole, propiconazole, prothioconazole, simeconazole, tebuconazole, tetraconazole, triadimenol, triticonazole, fenarimol, nuarimol, pyrifenox, imazalil, oxpoconazole fumarate, pefurazoate, procloraz or triflumizole is planted in the soil packed into the pot at a depth of 2 cm. […] Thereafter, the pot for a test is placed in a greenhouse.
In test [5] the test system is Amaranthus retroflexus. Briefly: Herbicidal activity, soil surface spray after planting (Example 4). The note with it: 3 cm stem cutting, one node, soil surface spray on date of planting, four weeks after treatment.
Experimental: A 30 cm to 40 cm stem cutting of sugar cane is placed on a wet soil, and germination is stimulated. The stem cutting from which a bud has grown to about 1 cm is selected, and the length of the stem cutting is adjusted to be 3 cm so that the stem cutting has one node. A soil is packed into a plastic pot, and seeds of Amaranthus retroflexus are seeded thereon. The stem cutting of sugar cane is planted in the soil packed in the pot at a depth of 2 cm. […] Thereafter, the pot for a test is placed in a greenhouse.
The test system of test [6] is Amaranthus retroflexus. Briefly: Herbicidal activity, soil surface spray, strobilurin-treated stem cutting (Example 8). The settings on record: 3 cm stem cutting treated with kresoxim-methyl, azoxystrobin or another listed strobilurin fungicide, four weeks after treatment.
Text: A 30 cm to 40 cm stem cutting of sugar cane is placed on a wet soil, and germination is stimulated. The stem cutting from which a bud has grown to about 1 cm is selected, and the length of the stem cutting is adjusted to be 3 cm so that the stem cutting has one node. Kresoxim-methyl, azoxystrobin, trifloxystrobin, fluoxastrobin, picoxystrobin, pyraclostrobin, dimoxystrobin, pyribencarb, metominostrobin, orysastrobin, enestrobin, pyraoxystrobin or pyrametostrobin is adhered to the stem cutting. A soil is packed into a plastic pot, and seeds of Amaranthus retroflexus are seeded thereon. The stem cutting of sugar cane treated with kresoxim-methyl, azoxystrobin, trifloxystrobin, fluoxastrobin, picoxystrobin, pyraclostrobin, dimoxystrobin, pyribencarb, metominostrobin, orysastrobin, enestrobin, pyraoxystrobin or pyrametostrobin is planted in the soil packed into the pot at a depth of 2 cm. […] Thereafter, the pot for a test is placed in a greenhouse.
For test [7], the system named is Amaranthus retroflexus. Briefly: Herbicidal activity, soil surface spray, insecticide-treated stem cutting (Example 6). The note with it: 3 cm stem cutting treated with clothianidin, thiamethoxiam, imidacloprid, dinotefuran, nitenpyram, acetamiprid or thiacloprid, four weeks after treatment.
Experimental: A 30 cm to 40 cm stem cutting of sugar cane is placed on a wet soil, and germination is stimulated. The stem cutting from which a bud has grown to about 1 cm is selected, and the length of the stem cutting is adjusted to be 3 cm so that the stem cutting has one node. Clothianidin, thiamethoxiam, imidacloprid, dinotefuran, nitenpyram, acetamiprid or thiacloprid is adhered to the stem cutting. A soil is packed into a plastic pot, and seeds of Amaranthus retroflexus are seeded thereon. The stem cutting of sugar cane treated with clothianidin, thiamethoxiam, imidacloprid, dinotefuran, nitenpyram, acetamiprid or thiacloprid is planted in the soil packed into the pot at a depth of 2 cm. […] Thereafter, the pot for a test is placed in a greenhouse.
Test [8] concerns Amaranthus retroflexus. The test can be described thus: Herbicidal activity, soil surface spray, metalaxyl-treated stem cutting (Example 12). The note with it: 3 cm stem cutting treated with metalaxyl or metalaxyl-M, four weeks after treatment. The protocol: A soil is packed into a plastic pot. Seeds of Amaranthus retroflexus are seeded thereon.
In test [9] the test system is Amaranthus retroflexus. The test can be described thus: Herbicidal activity, spray above weed before planting, metalaxyl-treated stem cutting (Example 13). The note with it: sprayed above weed, 3 cm stem cutting treated with metalaxyl or metalaxyl-M planted one week after treatment, four weeks after treatment.
Experimental: A soil is packed into a plastic pot, and seeds of Amaranthus retroflexus are seeded thereon. Thereafter, a pot is placed in a greenhouse, and the weed is grown.
A 30 cm to 40 cm stem cutting of sugar cane is placed on a wet soil, and germination is stimulated. The stem cutting from which a bud has grown to about 1 cm is selected, and the length of the stem cutting is adjusted to be 3 cm so that the stem cutting has one node. Metalaxyl or metalaxyl-M is adhered to the stem cutting.
as §2
In test [10] the test system is Amaranthus retroflexus. The test can be described thus: Herbicidal activity, spray above weed before planting, insecticide-treated stem cutting (Example 7). The note with it: sprayed above weed, 3 cm stem cutting treated with clothianidin, thiamethoxiam, imidacloprid, dinotefuran, nitenpyram, acetamiprid or thiacloprid planted one week after treatment, four weeks after treatment.
Experimental: as §1
A 30 cm to 40 cm stem cutting of sugar cane is placed on a wet soil, and germination is stimulated. The stem cutting from which a bud has grown to about 1 cm is selected, and the length of the stem cutting is adjusted to be 3 cm so that the stem cutting has one node. Clothianidin, thiamethoxiam, imidacloprid, dinotefuran, nitenpyram, acetamiprid or thiacloprid is adhered to the stem cutting.
as §2

For `CS(=O)(=O)NC(=O)c1cc(Oc2ccc(C(F)(F)F)cc2Cl)ccc1[N+](=O)[O-]` [fomesafen], the “herbicidal activity against Amaranthus retroflexus” value in the test on Amaranthus retroflexus [1] is on record as “the controlling effect on a weed can be confirmed”; in the test with Amaranthus retroflexus [2] it was “the controlling effect on a weed can be confirmed”; with Amaranthus retroflexus [3], “the controlling effect on a weed can be confirmed”; in the test with Amaranthus retroflexus [4] it was “the control effect on a weed can be confirmed”; with Amaranthus retroflexus [5], “the controlling effect on a weed can be confirmed”; with Amaranthus retroflexus [6], “the controlling effect on a weed can be confirmed”. In addition, the “herbicidal activity against Amaranthus retroflexus” value with Amaranthus retroflexus [7], in the test with Amaranthus retroflexus [8], in the test on Amaranthus retroflexus [9] and in the test with Amaranthus retroflexus [10] was “the controlling effect on a weed can be confirmed” throughout.
